Measurements taken from US11518805B2, “Binding inhibitor between TCTP dimer type IgE-dependent histamine releasing factor and receptor thereof, and use thereof” (EWHA UNIVERSITY—INDUSTRY COLLABORATION FOUNDATION, priority 2014, dated 2022).
Entries after “also recorded” stand apart in the source; their conditions may differ.

Legend:
[1] = system: asthma and rhinitis animal models induced with ovalbumin; assay: FL and H2 domain peptides in ovalbumin-induced asthma and rhinitis animal models; format: in vivo, BALB/c female mice; settings: for inflammatory cells in bronchoalveolar lavage fluid (total cell number, leukocyte number) / level of IL-5 in bronchoalveolar lavage fluid: 20 mg/kg intraperitoneal, vs positive control (PBS)
Experimental: Particularly, 5 week old specific pathogen free BALB/c female mice (weight: approximately 20 g) were purchased from Orientbio Inc. (Seoul, Korea), followed by stabilization in an animal laboratory for 1 week. The mice were administered with 200 ? of PBS containing 1.3 mg of aluminum hydroxide (Sigma A8222) and 100 μg of ovalbumin (Sigma A5503) via intraperitoneal injection twice at a week interval, followed by sensitization. Then, 20 ? of PBS containing 200 μg of ovalbumin dissolved therein was administered via intranasal instillation on day 14, day 16, and day 18 to induce immune response. PBS was administered for the positive control and FL and H2 domains and the antisera or antibodies thereof were administered via intraperitoneal injection 10 minutes before antigen administration. On day 15, day 17, and day 19, intraperitoneal administration was performed without antigen administration. On day 19, the animals were sacrificed 2 hours after the administration (FIG. 16). 50 μg of anti-C terminus IgG was administered via intranasal instillation or intraperitoneal injection 30 minutes before the antigen administration on day 14, day 16, and day 18. 24 hours after the last administration, the animals were sacrificed (FIG. 26). The asthma and rhinitis models constructed in Example 7 were treated with FL and H2 domain at the concentration of 20 mg/kg in order to investigate whether or not those two HRF receptor binding domains could suppress pathophysiological lesion of asthma and rhinitis. Particularly, after cardiac blood collection in the animal model constructed in Example 7, bronchoalveolar lavage was performed. The airway was opened and a 20-gauge intravascular tube catheter was inserted through the opened airway, through which 0.8 ml of PBS containing 2% FBS was slowly injected three times and then recovered. The recovery rate was at least 80% and the recovered washing solution was centrifuged at 4° C. for 15 minutes at 1,000×g. The obtained supernatant was used for the detection of cytokine such as IL-5 or for the detection of TCTP protein. In the meantime, the precipitate was resuspended in 100 ? of PBS containing 2% FBS. The number of the inflammatory cells infiltrated in the washing solution was counted by using HEMAVET 950FS (Drew Scientific). Particularly, upon completion of the experiment in Example 7, the mixture of zoletil (250 mg/kg) and rompun (50 mg/kg) was administered to the mouse via intraperitoneal injection to sacrifice the animal. 0.7˜0.8 mL of blood was collected from the heart and placed in a heparinized tube. The blood sample stood at room temperature for 30 minutes˜1 hour, followed by centrifugation at 1,000×g for 15 minutes to obtain plasma. The level of ovalbumin-specific IgE in the plasma was measured by ELISA. 100 μg of ovalbumin was dissolved in 0.05 M carbonate buffer (pH 9.6), which was distributed in a 96-well ELISA plate, followed by coating at 4° C. for overnight. Non-specific reaction was blocked by reacting the plate with TBS containing 1% BSA at room temperature for 30 minutes. The plasma sample was diluted (1:100), followed by reaction at room temperature for 1 hour, which was then washed with TBS containing 0.1% Tween-20. The […] anti-mouse IgE (SouthernBiotech) was diluted (1:8000), followed by reaction at room temperature for 1 hour. Then, the mixture was washed. TMB was treated thereto at room temperature. 10 minutes later, the reaction was terminated by adding 0.2 M H2SO4. Then, OD450 was measured with an ELISA reader. Particularly, bronchoalveolar lavage fluid was collected from the asthma and rhinitis animal models constructed in Example 7. The chest was dissected and the lung was extracted, which was washed with 4° C. PBS. The lung was cut to the appropriate size. Some of the lung pieces were fixed in PBS containing 4% paraformaldehyde (PFA) at room temperature via o/n fixation. […]

Del-N11dTCTP = biological target: T1, Del-N11dTCTP (Rattus norvegicus, UniProt P63029); assay: Inhibition of Del-N11dTCTP-induced IL-8 secretion by domain peptides in BEAS-2B cells; format: cell-based; settings: Del-N11dTCTP 70 nM, peptide molar ratios 0~1, 24 hours, ELISA
T1 construct: made in house
T1 sequence (P63029 11-172 limits assumed): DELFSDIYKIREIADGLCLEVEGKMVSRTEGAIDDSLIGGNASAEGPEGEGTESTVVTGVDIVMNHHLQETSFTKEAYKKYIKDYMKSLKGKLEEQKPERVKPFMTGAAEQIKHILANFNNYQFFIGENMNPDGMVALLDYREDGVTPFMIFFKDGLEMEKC
Experimental: To investigate inhibitory effect of FL domain, Helix 2 domain, and Helix 3 domain on Del-N11dTCTP, the inventors synthesized FL domain (Ac-[…]-NH2) (SEQ. ID. NO: 1), Helix 2 domain (Ac-[…]-NH2) (SEQ. ID. NO: 11), and Helix 3 domain (Ac-[…]-NH2) (SEQ. ID. NO: 22) by using the synthetic peptides prepared with NH2-terminal acetylation and COOH-terminal amidation, followed by purification.
Particularly, BEAS-2B cells were treated with Del-N11dTCTP (70 nM) by the same manner as described in Experimental Example 1. At this time, the synthesized FL domain, Helix 2 domain, and Helix 3 domain were treated to the cells at different molar ratios (0˜1), followed by reaction for 30 minutes. Then, Del-N11dTCTP was added thereto. 24 hours later, the supernatant was obtained and the released IL-8 was quantified by ELISA.

[2] = system: asthma and rhinitis animal models induced with ovalbumin; assay: FL and H2 domain peptides in ovalbumin-induced asthma and rhinitis animal models; format: in vivo, BALB/c female mice

With “Ac-SRTEGAIDDSLIGGNASAEGPEGEGTESTVVT-NH2 [FL domain, ID; NO: 1]” the “inflammatory cells in bronchoalveolar lavage fluid (total cell number, leukocyte number)” value [1] was “significantly lower”, the “level of IL-5 in bronchoalveolar lavage fluid” value [1] was “reduced” and the “level of ovalbumin-specific IgE in plasma” value ([1]; 20 mg/kg, ELISA, vs positive control) was “reduced”. For the same substance, the “number of total cells and level of lymphocytes in bronchoalveolar lavage fluid” value ([1]; 20 mg/kg, p<0.01) was “significantly reduced”, the “level of TCTP dimer (approximately 45 kDa) in bronchoalveolar lavage fluid, immunoblotting” value ([1]; vs positive control) was “reduced” and the “phospho-IκBα in lung tissue, immunoblotting” value ([1]; vs positive control) was “decreased”. For the same substance, the “inhibition of IL-8 secretion induced by Del-N11dTCTP” value (Del-N11dTCTP) was “inhibited IL-8 secretion better than Helix 3 domain; also recorded: inhibited more strongly”, the “IL-5 secretion in bronchoalveolar lavage fluid” value ([2]; 1 mg/kg) was “could inhibit IL-5 secretion” and the “inflammatory cells infiltrated in bronchoalveolar lavage fluid, dose dependence” value ([2]; 1 mg/kg and 20 mg/kg) was “reduced FL domain dose-dependently”. For the same substance, the “level of ovalbumin-specific IgE in plasma, dose dependence” value ([2]; various concentrations (1 and 20 mg/kg)) was “reduced by the treatment of FL domain dose-dependently”.

“Ac-TKEAYKKYIKDYMKSLKGKLEEQKP-NH2 [Helix 2 domain, ID; NO: 11]” was tested, and the “inflammatory cells in bronchoalveolar lavage fluid (total cell number, leukocyte number)” value [1] was “decreased”, the “level of IL-5 in bronchoalveolar lavage fluid” value [1] was “reduced” and the “inhibition of IL-8 secretion induced by Del-N11dTCTP” value (Del-N11dTCTP) was “inhibited IL-8 secretion better than Helix 3 domain; also recorded: inhibited more strongly”.
